Columns and labels:
human P2Y12 receptor = human P2Y12 receptor (Homo sapiens, UniProt Q9H244); assay: Human P2Y12 recombinant cell membrane binding assay with 33P 2MeS-ADP; settings: competition against 33P 2MeS-ADP, membranes of CHO cells with recombinant human P2Y12 receptor
Method in brief: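 Competition binding against radiolabeled 2MeS-ADP (1.61 nM as added) on membranes from recombinant human P2Y12 CHO cells, 20 min RT after 15 min compound preincubation, pH 7.4. Filtration then scintillation counting; compounds tested in triplicate from 10 μM final, five-fold dilutions, curve fit with plate-defined min/max.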

[1] = system: human platelet rich plasma; assay: Inhibition of human platelet aggregation, 96-well assay; assay type: cell-based; settings: Homo sapiens, Platelet, 20 min
Method in brief: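 ADP-induced aggregation read as 650 nm absorbance every minute for 20 min at 37 °C, with shaking between reads. PRP (~3×E8 platelets/ml, diluted with PPP, ACD-A blood from healthy volunteers) was exposed to compound for 5 min before adding a 40 μM ADP stock (15 μl into 150 μl).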

Chain of human P2Y12 receptor (Q9H244 whole entry): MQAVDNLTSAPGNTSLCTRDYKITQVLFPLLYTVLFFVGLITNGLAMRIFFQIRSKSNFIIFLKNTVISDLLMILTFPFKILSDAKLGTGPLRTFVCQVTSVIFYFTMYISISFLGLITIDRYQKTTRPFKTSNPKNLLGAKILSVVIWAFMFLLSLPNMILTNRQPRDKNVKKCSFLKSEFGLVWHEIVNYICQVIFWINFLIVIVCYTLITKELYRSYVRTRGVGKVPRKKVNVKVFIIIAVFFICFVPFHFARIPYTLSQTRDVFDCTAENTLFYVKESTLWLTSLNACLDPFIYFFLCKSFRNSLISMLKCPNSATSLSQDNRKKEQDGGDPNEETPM

Row | IC50 (human P2Y12 receptor) | IC50 [1] | SMILES
1 | 37 nM | 440 nM | CCOC(=O)CC[C@H](NC(=O)c1cc(OCC(=O)N2CCC[C@H]2C(=O)NC2CCC2)n(-c2ccccc2)n1)C(=O)N1CCN(C(=O)OCC)CC1 [Example 127, 4-[(S)-2-({5-[2-((S)-2-Cyclobutylcarbamoyl-pyrrolidin-1-yl)-2-oxo-ethoxy]-1-phenyl-1H-pyrazole-3-carbonyl}-amino)-4-ethoxycarbonyl-butyryl]-piperazine-1-carboxylic acid ethyl ester]
2 | 43 nM | 690 nM | CCOC(=O)N1CCN(C(=O)[C@H](CCC(=O)OCC2CC2)NC(=O)c2cc(OCC(=O)N3CCC[C@H]3C(=O)NC3CCC3)n(-c3ccccc3)n2)CC1 [Example 128, 4-[(S)-2-({5-[2-((S)-2-Cyclobutylcarbamoyl-pyrrolidin-1-yl)-2-oxo-ethoxy]-1-phenyl-1H-pyrazole-3-carbonyl}-amino)-4-cyclopropylmethoxycarbonyl-butyryl]-piperazine-1-carboxylic acid ethyl ester]
3 | 39 nM | 260 nM | CCOC(=O)N1CCN(C(=O)[C@H](CCC(=O)OC)NC(=O)c2cc(OCC(=O)N3CCC[C@H]3C(=O)NC3CCC3)n(-c3ccccc3)n2)CC1 [Example 136, 4-[(S)-2-({5-[2-((S)-2-Cyclobutylcarbamoyl-pyrrolidin-1-yl)-2-oxo-ethoxy]-1-phenyl-1H-pyrazole-3-carbonyl}-amino)-4-methoxycarbonyl-butyryl]-piperazine-1-carboxylic acid ethyl ester]
4 | 83 nM | 1650 nM | CCOC(=O)N1CCN(C(=O)[C@H](CCC(=O)OCC2CCCC2)NC(=O)c2cc(OCC(=O)N3CCC[C@H]3C(=O)NC3CCC3)n(-c3ccccc3)n2)CC1 [Example 138, 4-[(S)-2-({5-[2-((S)-2-Cyclobutylcarbamoyl-pyrrolidin-1-yl)-2-oxo-ethoxy]-1-phenyl-1H-pyrazole-3-carbonyl}-amino)-4-cyclopentylmethoxycarbonyl-butyryl]-piperazine-1-carboxylic acid ethyl ester]
5 | 56 nM | 360 nM | CCOC(=O)N1CCN(C(=O)[C@H](CCC(=O)OCOC(=O)C(C)(C)C)NC(=O)c2cc(OCC(=O)N3CCC[C@H]3C(=O)NC3CCC3)n(-c3ccccc3)n2)CC1 [Example 139, 4-[(S)-2-({5-[2-((S)-2-Cyclobutylcarbamoyl-pyrrolidin-1-yl)-2-oxo-ethoxy]-1-phenyl-1H-pyrazole-3-carbonyl}-amino)-4-(2,2-dimethyl-propionyloxymethoxycarbonyl)-butyryl]-piperazine-1-carboxylic acid ethyl ester]
6 | 20 nM | 70 nM | CCOC(=O)N1CCN(C(=O)[C@H](CCC(=O)O)NC(=O)c2cc(OCC(=O)N3CCC[C@H]3C(=O)NC3CCC3)n(-c3ccccc3)n2)[C@H](C)C1 [Example 150, (R)-4-[(S)-4-Carboxy-2-({5-[2-((S)-2-cyclobutylcarbamoyl-pyrrolidin-1-yl)-2-oxo-ethoxy]-1-phenyl-1H-pyrazole-3-carbonyl}-amino)-butyryl]-3-methyl-piperazine-1-carboxylic acid ethyl ester]
7 | 15 nM | 120 nM | O=C(O)CC[C@H](NC(=O)c1cc(OCC(=O)N2CCC[C@H]2C(=O)NC2CCC2)n(-c2ccccc2)n1)C(=O)N1CCN(C(=O)OCc2ccccc2)CC1 [Example 159, 4-[(S)-4-Carboxy-2-({5-[2-((S)-2-cyclobutylcarbamoyl-pyrrolidin-1-yl)-2-oxo-ethoxy]-1-phenyl-1H-pyrazole-3-carbonyl}-amino)-butyryl]-piperazine-1-carboxylic acid benzyl ester]
8 | 33 nM | 240 nM | O=C(O)CC[C@H](NC(=O)c1cc(OCC(=O)N2CCC[C@H]2C(=O)NCC2CC2)n(-c2ccccc2)n1)C(=O)N1CCN(C(=O)OCc2ccccc2)CC1 [Example 161, 4-[(S)-4-Carboxy-2-({5-[2-((S)-2-(cyclopropylmethyl-carbamoyl)-pyrrolidin-1-yl)-2-oxo-ethoxy]-1-phenyl-1H-pyrazole-3-carbonyl}-amino)-butyryl]-piperazine-1-carboxylic acid benzyl ester]
9 | 13 nM | 10 nM | O=C(O)CC[C@H](NC(=O)c1cc(OCC(=O)N2CCC[C@H]2C(=O)NC2CCC2)n(-c2ccccc2)n1)C(=O)N1CCN(C(=O)OC2CCC2)CC1 [Example 163, 4-[(S)-4-Carboxy-2-({5-[2-((S)-2-cyclobutylcarbamoyl-pyrrolidin-1-yl)-2-oxo-ethoxy]-1-phenyl-1H-pyrazole-3-carbonyl}-amino)-butyryl]-piperazine-1-carboxylic acid cyclobutyl ester]
10 | 81 nM | 40 nM | CCOC(=O)N1CCN(C(=O)[C@H](CCC(=O)O)NC(=O)c2cc(OCC(=O)N3CC(F)(F)C[C@H]3C(=O)NC3CCC3)n(-c3ccccc3)n2)CC1 [Example 164, 4-[(S)-4-Carboxy-2-({5-[2-((S)-2-cyclobutylcarbamoyl-4,4-difluoro-pyrrolidin-1-yl)-2-oxo-ethoxy]-1-phenyl-1H-pyrazole-3-carbonyl}-amino)-butyryl]-piperazine-1-carboxylic acid ethyl ester]
11 | 98 nM | 440 nM | CCOC(=O)N1CCN(C(=O)[C@H](CCNC(=O)C2CC2(F)F)NC(=O)c2cc(OCC(=O)N3CCC[C@H]3C(=O)NC3CCC3)n(-c3ccccc3)n2)CC1 (stereo partly drawn) [Example 187, 4-{(S)-2-({5-[2-((S)-2-Cyclobutylcarbamoyl-pyrrolidin-1-yl)-2-oxo-ethoxy]-1-phenyl-1H-pyrazole-3-carbonyl}-amino)-4-[(2,2-difluoro-cyclopropanecarbonyl)-amino]-butyryl}-piperazine-1-carboxylic acid ethyl ester]
12 | 10 nM | 490 nM | CCOC(=O)N1CCN(C(=O)[C@H](CCNS(=O)(=O)C(F)(F)F)NC(=O)c2cc(OCC(=O)N3CCC[C@H]3C(=O)NC3CCC3)n(-c3ccccc3)n2)CC1 [Example 188, 4-[(S)-2-({5-[2-((S)-2-Cyclobutylcarbamoyl-pyrrolidin-1-yl)-2-oxo-ethoxy]-1-phenyl-1H-pyrazole-3-carbonyl}-amino)-4-trifluoromethanesulfonylamino-butyryl]-piperazine-1-carboxylic acid ethyl ester]
13 | 35 nM | 350 nM | COC(=O)CC[C@H](NC(=O)c1cc(OCC(=O)N2CCC[C@H]2C(=O)NC2CCC2)n(-c2ccccc2)n1)C(=O)N1CCN(C(=O)OC2CCC2)CC1 [Example 189, 4-[(S)-2-({5-[2-((S)-2-Cyclobutylcarbamoyl-pyrrolidin-1-yl)-2-oxo-ethoxy]-1-phenyl-1H-pyrazole-3-carbonyl}-amino)-4-methoxycarbonyl-butyryl]-piperazine-1-carboxylic acid cyclobutyl ester]
14 | 6 nM | 380 nM | CCCCOC(=O)N1CCN(C(=O)[C@H](CCC(=O)OC)NC(=O)c2cc(OCC(=O)N3CCC[C@H]3C(=O)NC3CCC3)n(-c3ccccc3)n2)CC1 [Example 191, 4-[(S)-2-({5-[2-((S)-2-Cyclobutylcarbamoyl-pyrrolidin-1-yl)-2-oxo-ethoxy]-1-phenyl-1H-pyrazole-3-carbonyl}-amino)-4-methoxycarbonyl-butyryl]-piperazine-1-carboxylic acid butyl ester]
15 | 131 nM | 190 nM | O=C(NCC(=O)N1CCN(C(=O)OC2CCC2)CC1)c1cc(OCC(=O)N2CCC[C@H]2C(=O)NC2CCC2)n(-c2ccccc2)n1 [Example 192, 4-[2-({5-[2-((S)-2-Cyclobutylcarbamoyl-pyrrolidin-1-yl)-2-oxo-ethoxy]-1-phenyl-1H-pyrazole-3-carbonyl}-amino)-acetyl]-piperazine-1-carboxylic acid cyclobutyl ester]
16 | 116 nM | 720 nM | CCOCCOC(=O)CC[C@H](NC(=O)c1cc(OCC(=O)N2CCC[C@H]2C(=O)NC2CCC2)n(-c2ccccc2)n1)C(=O)N1CCN(C(=O)OCC)CC1 [Example 198, 4-[(S)-2-({5-[2-((S)-2-Cyclobutylcarbamoyl-pyrrolidin-1-yl)-2-oxo-ethoxy]-1-phenyl-1H-pyrazole-3-carbonyl}-amino)-4-(2-ethoxy-ethoxycarbonyl)-butyryl]-piperazine-1-carboxylic acid ethyl ester]
17 | 139 nM | 920 nM | CCOC(=O)N1CCN(C(=O)[C@H](CCC(=O)OCC2CCCO2)NC(=O)c2cc(OCC(=O)N3CCC[C@H]3C(=O)NC3CCC3)n(-c3ccccc3)n2)CC1 (stereo partly drawn) [Example 199, 4-[(S)-2-({5-[2-((S)-2-Cyclobutylcarbamoyl-pyrrolidin-1-yl)-2-oxo-ethoxy]-1-phenyl-1H-pyrazole-3-carbonyl}-amino)-4-(tetrahydro-furan-2-ylmethoxycarbonyl)-butyryl]-piperazine-1-carboxylic acid ethyl ester]

Row | SMILES | IC50 (human P2Y12 receptor) | IC50 [1]
18 | CCOC(=O)N1CCN(C(=O)[C@H](CCC(=O)OC2CCC2)NC(=O)c2cc(OCC(=O)N3CCC[C@H]3C(=O)NC3CCC3)n(-c3ccccc3)n2)CC1 [Example 131, 4-[(S)-2-({5-[2-((S)-2-Cyclobutylcarbamoyl-pyrrolidin-1-yl)-2-oxo-ethoxy]-1-phenyl-1H-pyrazole-3-carbonyl}-amino)-4-cyclobutoxycarbonyl-butyryl]-piperazine-1-carboxylic acid ethyl ester] | 54 nM | 740 nM
19 | CCOC(=O)N1CCN(C(=O)[C@H](CCC(=O)OCC(C)C)NC(=O)c2cc(OCC(=O)N3CCC[C@H]3C(=O)NC3CCC3)n(-c3ccccc3)n2)CC1 [Example 135, 4-[(S)-2-({5-[2-((S)-2-Cyclobutylcarbamoyl-pyrrolidin-1-yl)-2-oxo-ethoxy]-1-phenyl-1H-pyrazole-3-carbonyl}-amino)-4-isobutoxycarbonyl-butyryl]-piperazine-1-carboxylic acid ethyl ester] | 60 nM | 660 nM

Reference: patent publication US8426420B2, “Heterocyclic pyrazole-carboxamidesas P2Y12 antagonists” (Sanofi, priority 2007, dated 2013)
